{
  "source": "patent US10434133B2",
  "about": "“Inflammation-suppressing composition including peptide” (KIRIN KABUSHIKI KAISHA, priority 2015, dated 2019)",
  "tested_on": "microglia",
  "assay": "TNF-α production of LPS/IFN-γ-stimulated isolated microglia (Test Examples 1 to 3)",
  "assay_type": "cell-based, mouse",
  "settings": "peptides at 10 μM and 50 μM; FIG. 2",
  "method": "Microglia were isolated from the mouse brain by the magnetic cell sorting method. Specifically, the brain removed from a mouse was treated with papain to obtain a brain tissue dispersion and the enzyme reaction was stopped. Subsequently, the dispersion was reacted to CD11b antibody (manufactured by Miltenyi Biotec), a common microglia marker magnetically labelled with superparamagnetic microbeads, to carry out magnetic separation whereby microglia were isolated. The isolated microglia cell was cultured for 12 hours in medium to which the above 336 dipeptides were added in a concentration of 50 μM each. Subsequently, 5 ng/ml of lipopolysaccharide (LPS, manufactured by SIGMA-ALDRICH) and 0.5 ng/ml of IFN-γ (manufactured by R&D system) were added thereto, the cell was further cultured for 12 hours and TNF-α contained in the culture supernatant was quantitatively determined using an ELISA kit (manufactured by eBioscience). […] Note that the results are average values of three consecutive data. Additionally, hereinafter the amino acids are shown in one-letter abbreviations. […] Note that, for the control, those cultured with no addition of the peptides were used as in Test Example 1. For comparison, the dipeptides having the same amino acid composition with different sequences, that it, VD and HL were also measured for the TNF-α production at different concentrations.",
  "data": [
    {"substance": "TDVE: tetrapeptide having DV as the core sequence", "values": [
      {"measurement": "inflammation suppression effect against microglia (TNF-α)", "result": "the most intense"}
    ]}
  ]
}
